Test results published in US8728978B2, “Biocide compositions (IV)” (Cognis IP Management GmbH, priority 2009, dated 2014).

Test: Solubility of biocides in different solvents at 25° C.
Assay type: physicochemical
Description: Solubility of two fungicides, one herbicide and one insecticide in different solvents at 25° C. was tested.

[1] = solvent: C8-C10 fatty acid dimethylamide (Ex. C3)
[2] = solvent: Lactic acid dimethyl amide (Ex. C4)
[3] = solvent: Levulinic acid tetrahydrofurfuryl ester (Ex. 7)

Row | Compound | Solubility of biocides [1] | Solubility of biocides [2] | Solubility of biocides [3]
1 | O=C(NC(=O)c1c(F)cccc1F)Nc1ccc(OC(F)(F)C(F)OC(F)(F)F)c(Cl)c1 (stereo not drawn) [Novaluron] | 32 % b.w. | 22 % b.w. | 24 % b.w.
2 | CCOc1cc(Oc2ccc(C(F)(F)F)cc2Cl)ccc1[N+](=O)[O-] [Oxyfluorfen] | 31 % b.w. | 23 % b.w. | 33 % b.w.
